Experimental data published in patent publication US11266616B2, “Compositions and methods for inhibiting kinase activity” (BRANDEIS UNIVERSITY, priority 2016, dated 2022).
“Also recorded” adds a separate entry of the source. Like-named read-outs stand apart in the source and are kept apart here.

How the values were obtained:
[1] = biological target: T1, dephosphorylated Aurora A kinase (Homo sapiens, UniProt O14965); test: Isothermal titration calorimetry (ITC) binding to dephosphorylated Aurora A kinase
T1 construct: Codon-optimized Aurora A^122-403 in pET28a and untagged λPP in T7-7 plasmid were co-transformed in BL21(DE3) cells; inferred from pET28a and the NiNTA column) (cleaved yes); made in house; host or cells: E. coli BL21(DE3), co-expressed with lambda protein phosphatase
T1 sequence (O14965 122-403): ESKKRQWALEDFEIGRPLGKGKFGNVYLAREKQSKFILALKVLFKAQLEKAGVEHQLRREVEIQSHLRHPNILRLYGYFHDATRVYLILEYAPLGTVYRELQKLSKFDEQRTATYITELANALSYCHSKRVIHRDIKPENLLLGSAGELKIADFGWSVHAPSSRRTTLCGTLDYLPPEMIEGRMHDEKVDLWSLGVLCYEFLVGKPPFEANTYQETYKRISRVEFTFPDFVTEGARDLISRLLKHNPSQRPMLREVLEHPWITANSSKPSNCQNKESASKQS
Procedure: Titrations were carried out using Nano ITC isothermal titration calorimeter (TA Instruments) and analyzed via the NanoAnalyze software using the independent fit model. Injectant was added in 1 μl volume, every 180 s, with a constant stirring speed at 350 rpm and at 25° C. Prior to ITC titration, both protein and TPX2 or monobody were dialyzed/resuspended in ITC buffer (20 mM TrisHCl, 200 mM NaCl, 3% (vol/vol) glycerol, 1 mM TCEP, pH 7.50).

HeLa cells [2] = test: Cell imaging of synchronized HeLa cells treated with PS48 (Aurora A localization, mitotic progression); format: cell-based, human
Text: FIG. 30 is a schematic showing a summary of a protocol used for cell synchronization experiments described herein to visualize effects of PS48 on TPX2 and Aurora A interaction in vivo.
The physiological importance of the Aurora A-TPX2 interaction was then investigated through experiments using PS48 to disrupt the Aurora A-TPX2 interaction in vivo. As described herein, during the transition to mitosis, Aurora A kinase is known to localize to the centrosomes and the spindle, with levels and activity of Aurora A kinase peaking during this point. TPX2 activates Aurora A kinase and targets Aurora A kinase to the spindle during mitosis. Thus, to observe effects of disruption of the Aurora A-TPX2 interaction on the biological in vivo activities of Aurora A kinase, cells in the experiment needed to be synchronized. The live cell imaging experiments to monitor Aurora A kinase and TPX2 in vivo interaction herein were performed using HeLa cells; however, HEK293 cells may also be used (FIGS. 33-35).
To monitor mitotic progression over time with fine resolution, in addition to staining DNA, phosphorylated histone H3 (“H3_P”) was also stained to monitor levels of H3_P in cells during live cell imaging (FIG. 31). Phosphorylation of Ser10 of histone H3 is considered to be a temporal marker of mitotic progression. […]

HeLa cells [3] = test: HeLa cell viability with PS48; format: cell-based, human; conditions: FIG. 39
[4] = Stability of PS48 at very high concentrations; format: physicochemical

Which results are given for `O=C(O)/C=C(/CCc1ccc(Cl)cc1)c1ccccc1` [PS48]?
Kd ([1]; Aurora A saturated with danusertib, FIGS. 3C-3D, read-out: Kd of PS48 binding to dephosphorylated Aurora A kinase): ~85 µM; Kd ([1]; ITC, FIG. 3B, read-out: Kd of binding of PS48 to Aurora A kinase): ~46 µM; localization of Aurora A to the spindle during mitosis (HeLa cells [2]; HeLa cells treated with PS48, FIGS. 36-37): not observed at the spindles; progression of HeLa cells through mitosis (HeLa cells [2]; presence of PS48 vs DMSO, FIG. 38): prolonged; HeLa cell viability (HeLa cells [3]): PS48-dose dependent; also recorded: decreased cell viability; stability of PS48 [4]: not stable
